Measurements reported in publication PMC9079923, “Trifluoromethylated proline analogues as efficient tools to enhance the hydrophobicity and to promote passive diffusion transport of the L-prolyl-L-leucyl glycinamide (PLG) tripeptide” (RSC Advances, 2018).
Residues, ends and D or L forms follow the SMILES beside them.

Experiments:
[1] = Parallel artificial membrane permeability assay (PAMPA), in vitro model of the BBB
Description: (§1) We then decided to evaluate the ability of our fluorinated PLG analogues 2 and 3 to cross the BBB through passive diffusion. […] The rate of permeation can be determined by the effective permeability (Pe) as well as the rate of transport values. The membrane retention value can also be obtained and reflects the strength of the interaction between the lipids that mimic the membrane and the peptide.
(§2) The buffer solution was prepared from a commercially concentrated one, supplied by pION. Following the manufacturer's instructions, system solution was adjusted to pH 7.4 using a 0.5 M NaOH solution. The compounds to be analyzed were dissolved in a mixture of buffer solution with 20% of 1-propanol used as co-solvent to ensure their solubility. The PAMPA sandwich was separated, and the donor wells were filled with 195 μL of each compound. A magnetic stirrer was placed in each well. The acceptor plate was put into the donor plate, ensuring that the underside of the membrane was in contact with the buffer. Then, 4 μL of a mixture of phospholipids from a porcine polar brain extract (20 mg mL^−1) in dodecane (composition: 12.6% phosphatidylcholine (PC), 33.1% phosphatidylethanolamine (PE), 18.5% phosphatidylserine (PS), 4.1% phosphatidylinositol (PI), 0.8% phosphatidic acid and 30.9% of other compounds) was added to the filter of each well, followed by 200 μL of buffer solution. The plate was then covered and incubated at room temperature in a saturated humidity atmosphere for 4 h under orbital agitation at 25 μm of unstirred water layer (UWL). After this period, the solution from the donor and acceptor plates was transferred to the UPLC vials. 100 μL of each acceptor and donor samples and 100 μL of t0 samples were injected into the UPLC apparatus.
(§3) Membrane retention was also calculated as the difference of product at t0 and after 4 h in the donor and acceptor compartments.

[2] = PAMPA, pH 7.4
Description: as §1, §2, §3

[3] = design: method as in PMID 12667689; details: cited from earlier work
[4] = Isocratic hydrophobicity index φ0 by RP-HPLC; type: physicochemical; details: RP-C18
Description: The hydrophobicity of the fluorinated analogues of PLG has then been assessed and compared to the native PLG 1 in order to investigate the specific effect imparted by the CF3 group. […] It is based on the measurement of the isocratic hydrophobicity index (φ0) which is defined as the percentage (by volume) of organic solvent required to achieve an equal distribution of compound between the polar mobile and apolar stationary phases. Thus, higher is the φ0 value, more hydrophobic is the compound. The method involves the measurement of the logarithm of retention factor k (log k) values by reversed-phase high-performance liquid chromatography (RP-HPLC) using various organic-phase concentrations in the mobile phase (in our case, the acetonitrile is used). By plotting the log k values as a function of the acetonitrile concentration, the φ0 value can be obtained from the slope and the intercept of the linear regression (φ0 = −intercept/slope). A good correlation between the φ0 and the log P values was shown.[15] The hydrophobicity index of our peptides was first measured at pH 7. […] The φ0 values were then measured at pH 2 to investigate the impact of the possible ionic form of the PLG peptides 1–3 on the hydrophobicity parameter. The lower φ0 value observed for the native PLG 1 is consistent with its expected polar ionic state (entry 1, Table 1). […] Only a slight decrease in the φ0 value is observed for the (S,S,S)-3 (entry 4, Table 1), that of the (R,S,S)-3 diastereomer remaining almost unchanged (entry 5, Table 1).
An Agilent 1200 series high-performance liquid chromatograph coupled to an ELSD detector was used. The reversed-phase HPLC measurements were carried out on a Zorbax® RX-C18 analytical column (4.6 × 250 mm, 5 μm). The mobile phase was 50 mM ammonium acetate and HPLC grade acetonitrile as organic modifier (pH 7.0) or TFA 0.1% buffer aqueous solution and 0.1% TFA HPLC grade acetonitrile (pH 2). The mobile phase flow rate was ranging from 0.1–1.0 mL min^−1. The dead time (t0) was measured by injecting sodium nitrate together with the sample at a concentration of 10 mM. The samples were dissolved at 1 mg/1 mL in water. Few drops of acetonitrile were added when the dissolution of the peptide was incomplete. The logarithm of retention factor k (log k) values were obtained according to the eqn (1):1 [drawing 1] where tR is the retention time of the compound and t0 the retention time of the unretained sodium nitrate solute.
The log k values were plotted as a function of the acetonitrile concentration. The slope (S) and the intercept (log kw) values were calculated from at least three concentrations of acetonitrile. The correlation coefficients of the linear fit were higher than 0.99. The isocratic hydrophobicity index φ0 was calculated according to the eqn (2):2 φ0 = −log kw/Swhere log kw is the log k value extrapolated to the 0% acetonitrile concentration.

[5] = pH 7.4, Effective permeability class according to the empirical BBB permeation prediction, pH 7.4, classes by ref 19
[6] = pH 7.4, Pe (× 10^6), effective permeability, pH 7.4, 4 h, 5 mM, mean ± SD
[7] = pH 7, 50 mM ammonium acetate / acetonitrile

Compound	Interaction with / retention in the membrane (in words) ([1]; pH 7.4, 4 h)	Membrane retention ([1]; pH 7.4, 4 h) [%]	Transport (%) (4 h) ([1]; pH 7.4, 4 h, 5 mM, mean ± SD)	Papp [1, 5] [×10⁻⁶ cm/s]	Papp [1, 6] [×10⁻⁶ cm/s]	Permeability / ability to cross the membrane by passive diffusion (in words) [2]	φ0 (isocratic hydrophobicity index) ([4]; pH 2, TFA 0.1% / acetonitrile)	φ0 (isocratic hydrophobicity index) [4, 7]	Crossing of the blood–brain barrier (BBB) [3]
CC(C)C[C@H](NC(=O)[C@@H]1CCCN1)C(=O)NCC(N)=O [compound 1, L-prolyl-L-leucyl glycinamide] (H-Pro-Leu-Gly-NH2)	no peptide was retained in the membrane	–	–	–	–	very negligible	9,2	12,3	known to cross the blood–brain barrier
(2R,4S)-Ser(Ψ^CF^3,HPro)-L-Leu-Gly-NH2 [(R,S,S)-3]	–	–	–	–	–	–	30,4	30,8	–

Now from value to compound, other results behind:

Interaction with / retention in the membrane (in words) ([1]; pH 7.4, 4 h)	Membrane retention ([1]; pH 7.4, 4 h) [%]	Transport (%) (4 h) ([1]; pH 7.4, 4 h, 5 mM, mean ± SD)	Papp [1, 5] [×10⁻⁶ cm/s]	Papp [1, 6] [×10⁻⁶ cm/s]	Permeability / ability to cross the membrane by passive diffusion (in words) [2]	φ0 (isocratic hydrophobicity index) ([4]; pH 2, TFA 0.1% / acetonitrile)	φ0 (isocratic hydrophobicity index) [4, 7]	Compound	Crossing of the blood–brain barrier (BBB) [3]
strong interaction with the membrane	30	0.65 ± 0.06	< 2	0.31 ± 0.03	–	–	–	CC(C)C[C@H](NC(=O)[C@@]1(C(F)(F)F)CCCN1)C(=O)NCC(N)=O [(R,S)-2, (R)-α-CF3-Pro-L-Leu-Gly-NH2]	–
strong interaction with the membrane	50	5.34 ± 0.08	2 to 4	2.68 ± 0.04	–	–	–	CC(C)C[C@H](NC(=O)[C@]1(C(F)(F)F)CCCN1)C(=O)NCC(N)=O [(S,S)-2]	–
–	–	–	–	–	–	25,3	27,5	(2S,4S)-Ser(Ψ^CF^3,HPro)-L-Leu-Gly-NH2 [(S,S,S)-3]	–
